Data on three compounds can be found in ChEMBL document CHEMBL6182913, “Design of Potent Small-Molecule Stimulator of Interferon Gene Inhibitor and Stimulator of Interferon Gene Mutant-Specific Degrader” (J Med Chem, 2025).

Active and inactive are the calls of the source. The rule behind the calls is not given here. A value given as a limit tells only on which side of the number the result lay.

Data set [1] deals with T1, Stimulator of interferon genes protein (Homo sapiens, UniProt Q86WV6, G230A/R293Q/R71H). Description: Inhibition of cGAMP-induced STING HAQ mutant transfected in human THP1-Blue ISG cells preincubated with compound for 6 hrs followed by cGAMP addition and measured after 18 hrs by QUANTI-Blue based microplate reader analysis. In kind it is cell-based.
A short description of data set [2]: Cytotoxicity against human THP1-Blue ISG cells assessed as inhibition of cell growth at 10 uM incubated for 24 hrs by MTS assay relative to control. Type of data set: toxicity, cell-based. In general terms: Formazan colour is commonly taken as a measure of viable cells.
A short description of data set [3]: Metabolic stability in mouse plasma assessed as half life in presence of NADPH by LC-MS/MS analysis. Type of data set: ADME, cell-free.
Data set [4] addresses T1, Stimulator of interferon genes protein. Description: Inhibition of diABZI-induced STING HAQ mutant transfected in human THP1-Blue ISG cells preincubated with compound for 6 hrs followed by diABZI addition and measured after 18 hrs by QUANTI-Blue based microplate reader analysis. Type of data set: cell-based.
Data set [5] deals with T2, Stimulator of interferon genes protein (Homo sapiens, UniProt Q86WV6). Description: Inhibition of cGAMP-induced STING R232 mutant transfected human THP-1 cells preincubated with compound for 6 hrs followed by cGAMP addition and measured after 18 hrs by QUANTI-Luc based microplate reader analysis. Type of data set: cell-based.
Target sequence in this assay (Q86WV6 whole entry, looked up, change not shown): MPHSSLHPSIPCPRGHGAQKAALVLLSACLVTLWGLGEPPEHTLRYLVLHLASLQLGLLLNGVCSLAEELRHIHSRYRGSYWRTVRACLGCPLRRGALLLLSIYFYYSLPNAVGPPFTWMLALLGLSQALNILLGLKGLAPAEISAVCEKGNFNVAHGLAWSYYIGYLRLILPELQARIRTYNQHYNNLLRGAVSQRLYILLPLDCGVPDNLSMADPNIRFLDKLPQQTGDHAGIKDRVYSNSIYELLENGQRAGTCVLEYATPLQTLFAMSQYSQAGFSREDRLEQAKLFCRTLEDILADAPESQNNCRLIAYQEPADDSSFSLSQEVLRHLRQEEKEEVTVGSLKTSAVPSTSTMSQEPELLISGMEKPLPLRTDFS
Data set [6] addresses T3, Stimulator of interferon genes protein (Mus musculus, UniProt Q3TBT3).
T3 sequence (Q3TBT3 whole entry): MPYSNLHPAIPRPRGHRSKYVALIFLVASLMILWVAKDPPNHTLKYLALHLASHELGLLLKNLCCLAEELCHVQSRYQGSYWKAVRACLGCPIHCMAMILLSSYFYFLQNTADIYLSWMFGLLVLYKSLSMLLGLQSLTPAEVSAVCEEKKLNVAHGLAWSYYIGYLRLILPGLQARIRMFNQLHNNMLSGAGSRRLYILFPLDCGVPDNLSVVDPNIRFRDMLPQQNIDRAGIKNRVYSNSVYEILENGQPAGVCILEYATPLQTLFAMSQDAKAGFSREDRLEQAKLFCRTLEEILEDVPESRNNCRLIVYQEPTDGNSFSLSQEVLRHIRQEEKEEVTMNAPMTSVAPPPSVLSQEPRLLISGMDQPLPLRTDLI
Description: Inhibition of cGAMP-induced mouse STING transfected in human THP-1 cells preincubated with compound for 6 hrs followed by cGAMP addition and measured after 18 hrs by QUANTI-Luc based microplate reader analysis. In kind it is cell-based.

In data set [7] the target is T2, Stimulator of interferon genes protein. The data set can be described thus: Inhibition of cGAMP-induced STING S154 mutant transfected in human THP-1 cells preincubated with compound for 6 hrs followed by cGAMP addition and measured after 18 hrs by QUANTI-Luc based microplate reader analysis. Type of data set: cell-based.
Target sequence in this assay (Q86WV6 whole entry, looked up, change not shown): as the sequence (Q86WV6 whole entry, looked up, change not shown) above
The target is the same in data set [8]. Description: Inhibition of STING in human THP-1 cells assessed as inhibition of cGAMP-induced IFN-beta release at 0.05 to 0.5 uM pretreated with compound for 6 hrs followed by cGAMP addition and measured after 18 hrs by ELISA. In kind it is cell-based. Conditions: dose 0.05-0.5 µM, time 24.0 hrs. Background: In an ELISA, binding on a coated surface is turned into a signal by an enzyme label.
Target sequence in this assay (Q86WV6 whole entry): as the sequence (Q86WV6 whole entry, looked up, change not shown) above

Data set [9] concerns the target T4, Stimulator of interferon genes protein (Mus musculus) (UniProt Q3TBT3).
T4 sequence (whole entry): T3 sequence (Q3TBT3 whole entry)
The data set can be described thus: Inhibition of STING in mouse BMDM cells assessed as inhibition of cGAMP-induced IFN-beta release at 0.05 to 0.5 uM pretreated with compound for 6 hrs followed by cGAMP addition and measured after 18 hrs by ELISA. In kind it is cell-based. Conditions: dose 0.05-0.5 µM, time 24.0 hrs.

Data set [10] addresses T4, Stimulator of interferon genes protein (Mus musculus). The data set can be described thus: Inhibition of STING in mouse BMDM cells assessed as inhibition of cGAMP-induced CXCL-10 release at 0.05 to 0.5 uM pretreated with compound for 6 hrs followed by cGAMP addition and measured after 18 hrs by ELISA. Type of data set: cell-based. Particulars: dose 0.05-0.5 µM, time 24.0 hrs.

Data set [11] concerns the target T2, Stimulator of interferon genes protein. The data set can be described thus: Inhibition of STING activation in human THP1-Blue ISG cells assessed as decrease in cGAMP-induced STING phosphorylation at 0.1 to 1 uM preincubated with compound for 6 hrs followed by cGAMP addition and measured after 3 hrs by Western blotting analysis. Type of data set: cell-based. Conditions: dose 0.1-1 µM, time 9.0 hrs. In general terms: In western blotting, separated proteins are transferred to a membrane and probed.
Target sequence in this assay (Q86WV6 whole entry): as the sequence (Q86WV6 whole entry, looked up, change not shown) above

Data set [12] has the same target. Description: Inhibition of STING activation in human THP1-Blue ISG cells assessed as decrease in cGAMP-induced IRF3 phosphorylation at 0.1 to 1 uM preincubated with compound for 6 hrs followed by cGAMP addition and measured after 3 hrs by Western blotting analysis. In kind it is cell-based. Particulars: dose 0.1-1 µM, time 9.0 hrs.
Target sequence in this assay (Q86WV6 whole entry): as the sequence (Q86WV6 whole entry, looked up, change not shown) above
The nature of data set [13]: Metabolic stability in mouse liver microsomes assessed as half life at 10 uM in presence of NADPH by LC-MS/MS analysis. In kind it is ADME, Microsome.
Data set [14] in a line: Metabolic stability in human liver microsomes assessed as half life at 10 uM in presence of NADPH by LC-MS/MS analysis. Type of data set: ADME, Microsome.
Data set [15] is described as follows: Metabolic stability in human plasma assessed as half life in presence of NADPH by LC-MS/MS analysis. In kind it is ADME, cell-free.
In data set [16] the target is T4, Stimulator of interferon genes protein (Mus musculus). Description: In vivo inhibition of cGAMP-induced STING activation in autoimmune disease female C57BL/6 mouse model assessed as decrease in cGAMP-induced serum INF-beta level at 10 mg/kg, sc pretreated with compound for 2 hrs followed by cGAMP addition and measured after 3 hrs by ELISA. Type of data set: functional, organism-based.

The nature of data set [17]: Cmax in mouse at 20 mg/kg, po by LC-MS/MS analysis. Type of data set: ADME, organism-based. Conditions: in vivo, read-out: Cmax.
The target in data set [18] is T4, Stimulator of interferon genes protein (Mus musculus). Description: In vivo inhibition of cGAMP-induced STING activation in autoimmune disease female C57BL/6 mouse model assessed as decrease in cGAMP-induced serum CXCL-10 level at 10 mg/kg, sc pretreated with compound for 2 hrs followed by cGAMP addition and measured after 3 hrs by ELISA. In kind it is functional, organism-based.

T1 sequence (Q86WV6 whole entry R71H/G230A/R293Q): as the sequence (Q86WV6 whole entry, looked up, change not shown) above, with R71H, G230A, R293Q counted along it

For orientation: IC50 means the concentration that gives 50% inhibition. Broadly, the inhibition is the percentage by which the read-out fell short of the control. Usually half-life stands for the time in which the quantity being followed falls by half. Take `CCS(=O)(=O)Nc1cc(NC(=O)c2ccc(-c3ccc4oc(C5C(C(N)=O)c6ccccc6C(=O)N5c5ccc(C(C)(C)C)c(Cl)c5)cc4c3)cc2)ccc1O` (stereo not drawn): the IC50 in [1] was 200 nM. Besides, in [2], the inhibition at 24 h, 10 µM was 11.1%. Moreover, the half-life in data set [3] was above 4 h.

Usually Cmax stands for the highest concentration seen after dosing. Regarding `CC(C)(C)c1ccc(N2C(=O)c3ccccc3C(C(N)=O)C2c2cc3cc(-c4ccc(C(=O)Nc5ccc(O)c(NS(C)(=O)=O)c5)cc4)ccc3o2)cc1Cl` (stereo not drawn), the IC50 in data set [1] was determined as 100 nM; in [4], 110 nM; in data set [5], 30 nM; in data set [6] it was 20 nM; in data set [7], 210 nM. Further, the inhibition at 24 h, 10 µM in [2] was 36.5%. The inhibition entry in [8], in [9], in [10], in data set [11], in [12] and in data set [16] was “Active” throughout. In [18], the inhibition entry was “Active”. For the same compound, the half-life at 10 µM in [13] and in data set [14] was above 1 h throughout. In data set [15], the half-life was above 4 h. Also, the peak concentration (Cmax) in [17] amounted to 200 nM.

For `COc1ccc2c(c1)C(=O)N(c1ccc(C(C)(C)C)c(Cl)c1)C(c1cc3cc(-c4ccc(C(=O)Nc5ccc(O)c(NS(C)(=O)=O)c5)cc4)ccc3o1)C2C(N)=O` (stereo not drawn), the IC50 in [1] worked out at 80 nM; in [4], 80 nM; in data set [5], 30 nM; in data set [6], 30 nM; in data set [7], 260 nM. For the same compound, the inhibition at 24 h, 10 µM in data set [2] came to 37.3%. Moreover, the inhibition result in [8], in [9], in data set [10], in [11], in data set [12] and in data set [16] was “Active” in each case. In addition, in data set [18], the inhibition result is “Active”. The half-life at 10 µM in data set [13] and in data set [14] was above 1 h each time. The half-life in data set [3] and in data set [15] was above 4 h each time. The Cmax in data set [17] was 200 nM.
